Data as given in patent US20250304576A1 (Cancer Research Technology Limited, priority 2022, published 2025).

How the values were obtained:
Recombinant IKKα = target: T1, Recombinant IKKα (Homo sapiens, UniProt O15111); test: DELFIA IKKα kinase assay (apparent Ki, Cheng-Prusoff); format: biochemical
T1 construct: purchased Millipore, Dundee, UK
T1 sequence (O15111 1-745): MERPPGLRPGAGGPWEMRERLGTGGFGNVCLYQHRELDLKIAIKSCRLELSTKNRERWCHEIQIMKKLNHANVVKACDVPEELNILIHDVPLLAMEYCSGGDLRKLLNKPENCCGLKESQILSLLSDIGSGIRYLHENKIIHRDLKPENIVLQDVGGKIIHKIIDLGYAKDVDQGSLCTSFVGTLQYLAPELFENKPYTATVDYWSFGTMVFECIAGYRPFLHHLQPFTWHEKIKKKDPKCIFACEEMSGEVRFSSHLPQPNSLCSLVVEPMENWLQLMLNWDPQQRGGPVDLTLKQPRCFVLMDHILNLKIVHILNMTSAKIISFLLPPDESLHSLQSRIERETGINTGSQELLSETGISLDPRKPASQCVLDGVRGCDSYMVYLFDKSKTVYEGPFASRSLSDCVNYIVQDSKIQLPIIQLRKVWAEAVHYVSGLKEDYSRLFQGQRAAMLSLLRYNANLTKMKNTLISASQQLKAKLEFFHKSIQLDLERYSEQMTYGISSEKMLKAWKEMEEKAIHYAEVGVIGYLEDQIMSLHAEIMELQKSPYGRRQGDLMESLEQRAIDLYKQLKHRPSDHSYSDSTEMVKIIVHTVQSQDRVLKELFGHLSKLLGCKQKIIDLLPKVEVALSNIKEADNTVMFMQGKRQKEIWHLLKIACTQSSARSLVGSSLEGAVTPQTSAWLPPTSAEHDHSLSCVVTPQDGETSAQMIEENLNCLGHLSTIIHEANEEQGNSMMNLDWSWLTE
Experimental: (§1) IKKα and IKKβ inhibitory activity was determined using three different assays: a dissociation enhanced ligand fluorescent immunoassay (DELFIA) based on the protocol of HTScan™ IKKβ Kinase Assay (Cell Signaling Technology, USA); an Adapta IKKα assay (performed by Life Technologies); a Z′-LYTE™ IKKβ assay (performed by Life Technologies).
(§2) Recombinant IKKα or IKKβ, 37 nM, (Millipore, Dundee, UK) was incubated with IηB-α (Ser32) (New England Biolabs, Hitchin, UK) biotinylated peptide substrate (0.375 μM) and 40 μM ATP in assay buffer (40 mM Tris-HCl (pH 7.5), 20 mM MgCl2, EDTA 1 mM, DTT 2 mM and BSA 0.01 mg/ml) in a V-well 96-well plate in the presence and absence of test compound. The assay plate was incubated for 60 minutes at 30° C. after which the kinase reaction was quenched by the addition of 50 mM EDTA, pH8. The resulting mixture was transferred to a streptavidin coated 96-well plate (Perkin Elmer, Beaconsfield, UK) and incubated for 1 hour at 30° C. to immobilise the substrate peptide. After three washes with wash buffer (0.01 M phosphate buffered saline (PBS), 0.05% Tween −20, pH 7.4) a primary antibody against the phosphorylated substrate (phospho-IηB-a) (Ser32/36) (5A5) Mouse mAb (New England Biolabs, Hitchin, UK) (1:1000 dilution with 1% bovine serum albumin (BSA) in wash buffer) was added and incubated at 37° C. for 2 h.
(§3) After a further three washes, a secondary europiated antibody (Eu-N1 labelled anti-mouse IgG, (Perkin Elmer, Beaconsfield, UK) diluted 1:500 in 1% BSA/wash buffer) was added and incubated at 30° C. for 30 minutes. After a further five washes, DELFIA enhancement solution—(Perkin Elmer, Beaconsfield UK) was added and allowed to incubate for 10 min at room temperature, protected from light, to facilitate the chemifluorescent detection. The relative fluorescence units (RFU) signal were measured on a Wallac Victor 1420 multilabel counter (Perkin Elmer, Beaconsfield, UK), in time-resolved fluorescence mode. The counter was set at an excitation wavelength of 340 nm with a 400 μs delay before detecting emitted light at 615 nm. The apparent Ki of the […] was calculated for each compound using the Cheng-Prusoff Equation.
(§4) The IKKα and IKKβ figures quoted in non-italicised form are from the DELFIA assay described above.

Recombinant IKKβ = target: T2, Recombinant IKKβ (Homo sapiens, UniProt O14920); test: DELFIA IKKβ kinase assay (apparent Ki, Cheng-Prusoff); format: biochemical; conditions: non-italicised figure: DELFIA assay
T2 construct: purchased Millipore, Dundee, UK
T2 sequence (O14920 1-756): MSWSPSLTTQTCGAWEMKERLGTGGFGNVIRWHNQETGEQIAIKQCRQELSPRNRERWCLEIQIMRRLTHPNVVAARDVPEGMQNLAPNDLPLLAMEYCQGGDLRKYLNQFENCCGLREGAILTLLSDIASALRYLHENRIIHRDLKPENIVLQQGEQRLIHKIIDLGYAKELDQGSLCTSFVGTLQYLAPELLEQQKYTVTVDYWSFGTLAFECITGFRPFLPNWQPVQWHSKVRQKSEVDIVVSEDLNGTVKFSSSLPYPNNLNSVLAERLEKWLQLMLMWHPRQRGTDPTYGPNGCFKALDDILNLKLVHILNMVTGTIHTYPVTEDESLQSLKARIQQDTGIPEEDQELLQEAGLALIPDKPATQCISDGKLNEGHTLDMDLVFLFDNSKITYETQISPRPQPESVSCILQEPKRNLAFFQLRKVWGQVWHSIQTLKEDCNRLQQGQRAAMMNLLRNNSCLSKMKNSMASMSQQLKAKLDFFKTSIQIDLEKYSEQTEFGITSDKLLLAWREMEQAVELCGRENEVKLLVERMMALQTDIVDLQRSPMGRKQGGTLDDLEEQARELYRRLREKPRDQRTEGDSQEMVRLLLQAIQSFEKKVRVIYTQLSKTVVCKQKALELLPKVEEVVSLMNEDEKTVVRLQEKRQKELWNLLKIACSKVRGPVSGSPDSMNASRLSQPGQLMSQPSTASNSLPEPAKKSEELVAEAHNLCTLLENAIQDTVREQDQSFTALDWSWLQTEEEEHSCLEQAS
Experimental: as §1, §2, §3, §4

[1] = non-italicised figure: DELFIA assay
[2] = DELFIA assay (first line of an example)

| Ki (Recombinant IKKα; [1]) [nM] | Ki (Recombinant IKKβ) [nM] | Ki (Recombinant IKKα; [2]) [nM] | SMILES |
| --- | --- | --- | --- |
| 55 | 880 |  | Nc1cc(-c2cc(Cl)c3[nH]nc(N)c3c2)ccn1 [Example 1, 5-(2-Aminopyridin-4-yl)-7-chloro-1H-indazol-3-amine] |
| 72 | 461 |  | Cc1cc(-c2ccnc(N)c2)cc2c(N)n[nH]c12 [Example 2, 5-(2-Aminopyridin-4-yl)-7-methyl-1H-indazol-3-amine] |
| 38 | 194 |  | Nc1cc(-c2cc(C(F)(F)F)c3[nH]nc(N)c3c2)ccn1 [Example 3, 5-(2-Aminopyridin-4-yl)-7-(trifluoromethyl)-1H-indazol-3-amine] |
| 4 | 93 |  | Nc1n[nH]c2c(Cl)cc(-c3ccnc4[nH]ccc34)cc12 [Example 4, 7-Chloro-5-(1H-pyrrolo[2,3-b]pyridin-4-yl)-1H-indazol-3-amine] |
| 6 | 26 |  | Nc1n[nH]c2c(Br)cc(-c3ccnc4[nH]ccc34)cc12 [Example 5, 7-Bromo-5-(1H-pyrrolo[2,3-b]pyridin-4-yl)-1H-indazol-3-amine] |
| 26 | 137 |  | C#Cc1cc(-c2ccnc3[nH]ccc23)cc2c(N)n[nH]c12 [Example 6, 7-Ethynyl-5-(1H-pyrrolo[2,3-b]pyridin-4-yl)-1H-indazol-3-amine] |
| 35 | 1260 |  | Nc1n[nH]c2c(-c3ccccc3)cc(-c3ccnc4[nH]ccc34)cc12 [Example 7, 7-Phenyl-5-(1H-pyrrolo[2,3-b]pyridin-4-yl)-1H-indazol-3-amine] |
| 2 | 33 |  | Cc1cc2c(-c3ccc4[nH]nc(N)c4c3)ccnc2[nH]1 [Example 8, 5-(2-Methyl-1H-pyrrolo[2,3-b]pyridin-4-yl)-1H-indazol-3-amine] |
| 19 | 109 |  | CC(C)(C)c1cc2c(-c3ccc4[nH]nc(N)c4c3)ccnc2[nH]1 [Example 9, 2-(Tert-butyl)-4-(3-amino-1H-indazol-5-yl)-7-azaindole] |
| 5 | 335 |  | Nc1n[nH]c2ccc(-c3ccnc4[nH]c(C(=O)O)cc34)cc12 [Example 10, 4-(3-Amino-1H-indazol-5-yl)-1H-pyrrolo[2,3-b]pyridine-2-carboxylic acid] |
| 39 | 258 |  | Nc1n[nH]c2c(Br)cc(-c3ncnc4[nH]ccc34)cc12 [Example 11, 7-Bromo-5-(7H-pyrrolo[2,3-d]pyrimidin-4-yl)-1H-indazol-3-amine] |
| 8 | 38 |  | CCNc1cc(-c2ccc3[nH]nc(N)c3c2)ccn1 [Example 12, 5-[2-(Ethylamino)pyridin-4-yl]-1H-indazol-3-amine] |
| 49 | 251 |  | CCCNc1cc(-c2ccc3[nH]nc(N)c3c2)ccn1 [Example 13, 5-(2-(Propylamino)pyridin-4-yl)-1H-indazol-3-amine] |
| 76 | 587 |  | CC(C)Nc1cc(-c2ccc3[nH]nc(N)c3c2)ccn1 [Example 14, 5-(2-(Isopropylamino)pyridin-4-yl)-1H-indazol-3-amine] |
| 171 | 796 |  | Nc1n[nH]c2ccc(-c3ccnc(NCC4CC4)c3)cc12 [Example 15, 5-(2-((Cycipropylmethyl)amino)pyridine-4-yl)-1H-indazol-3-amine] |
| 65 | 838 |  | CC(C)CCNc1cc(-c2ccc3[nH]nc(N)c3c2)ccn1 [Example 16, 5-(2-(Isopentylamino)pyridin-4-yl)-1H-indazol-3-amine] |
| 5580 |  |  | Nc1nccc(-c2ccc3[nH]nc(N)c3c2)c1CCCCO [Example 101, 4-(2-Amino-4-(3-amino-1H-indazol-5-yl)pyridin-3-yl)butan-1-ol] |
| 8980 |  |  | Nc1nccc(-c2ccc3[nH]nc(N)c3c2)c1CCC1(O)CCCCC1 [Example 102, 1-(2-(2-Amino-4-(3-amino-1H-indazol-5-yl)pyridin-3-yl)ethyl)cyclohexan-1-ol] |
| 24800 |  |  | Nc1nccc(-c2ccc3[nH]nc(N)c3c2)c1CCCCCO [Example 103, 5-(2-Amino-4-(3-amino-1H-indazol-5-yl)pyridin-3-yl)pentan-1-ol] |
| 517 |  |  | CC(C)(C)C#Cc1cc(-c2ccnc(N)n2)cc2c(N)n[nH]c12 [Example 143, 5-(2-Aminopyrimidin-4-yl)-7-(3,3-dimethylbut-1-yn-1-yl)-1H-indazol-3-amine] |
| 573 |  |  | CC(C)(C)C#Cc1cc(-c2cc(N)nc(F)c2)cc2c(N)n[nH]c12 [Example 150, 5-(2-Amino-6-fluoropyridin-4-yl)-7-(3,3-dimethylbut-1-yn-1-yl)-1H-indazol-3-amine] |
| 931 |  |  | CC(C)(C)C#Cc1cc(-c2cc(N)nc(N)c2)cc2c(N)n[nH]c12 [Example 151, 4-(3-Amino-7-(3,3-dimethylbut-1-yn-1-yl)-1H-indazol-5-yl)pyridine-2,6-diamine] |
| 19 |  |  | CC1(C#Cc2cc(-c3ccnc(NC4CC4)c3)cc3c(N)n[nH]c23)COC1 [Example 176, 5-(2-(Cyclopropylamino)pyridine-4-yl)-7-((3-methyloxetan-3-yl)ethynyl)-1H-indazol-3-amine] |
| 22 |  |  | CC(=O)Nc1cc(-c2cc(C#Cc3ccccc3)c3[nH]nc(N)c3c2)ccn1 [Example 178, N-(4-(3-Amino-7-(phenylethynyl)-1H-indazol-5-yl)pyridin-2-yl)acetamide] |
|  |  | 5520 | CC(C)(C)C#Cc1cc(-c2ccnc(NS(C)(=O)=O)c2)cc2c(N)n[nH]c12 [Example 193, N-(4-(3-Amino-7-(3,3-dimethylbut-1-yn-1-yl)-1H-indazol-5-yl)pyridine-2-yl)methanesulfonamide] |
|  |  | 21800 | CC(=O)Nc1cc(-c2cc(C#CC(C)(C)C)c3[nH]nc(N)c3c2)cc(F)n1 [Example 195, N-(4-(3-amino-7-(3,3-dimethylbut-1-yn-1-yl)-1H-indazol-5-yl)-6-fluoropyridin-2-yl)acetamide] |
|  |  | 13 | CC(C)(C)C#Cc1cc(-c2ccnc3[nH]c(CN4CCOCC4)cc23)cc2c(N)n[nH]c12 [Example 279, 7-(3,3-Dimethylbut-1-yn-1-yl)-5-(2-(morpholinomethyl)-1H-pyrrolo[2,3-b]pyridin-4-yl)-1H-indazol-3-amine] |
